#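 Test compounds were applied to cells in 96-well plates for 48 hours at 5 doses. The concentration for full growth arrest is given as TGI.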
# Tested on: OVCAR-3 ovarian
# Assay: DTP human tumour cell line panel, 48 h
row,Structure (SMILES),TGI [µM]
1,O=[N+]([O-])c1ccc(Cl)c(C=NC23CC4CC(CC(C4)C2)C3)c1,> 10
2,O=S(=O)(c1ccccc1)n1c2cc3cccnc3nc2c2cccnc21,> 100
3,Cc1cccc(-c2nc3ccc([N+](=O)[O-])cc3c(=O)o2)c1,> 100
4,Oc1ccc2ccccc2c1/C=C/c1ccc2c(Br)cc(Br)c(O)c2n1,10
5,CC1(CCCO)CCCCCC(C)(CCCO)C1=O (stereo not given),> 100

# Tested on: BT-549 breast
# Assay: DTP human tumour cell line panel, 48 h
row,Structure (SMILES),TGI [µM]
1,O=[N+]([O-])c1ccc(Cl)c(C=NC23CC4CC(CC(C4)C2)C3)c1,> 10
2,O=S(=O)(c1ccccc1)n1c2cc3cccnc3nc2c2cccnc21,> 100
3,Cc1cccc(-c2nc3ccc([N+](=O)[O-])cc3c(=O)o2)c1,> 100
4,Oc1ccc2ccccc2c1/C=C/c1ccc2c(Br)cc(Br)c(O)c2n1,26.8
5,CC1(CCCO)CCCCCC(C)(CCCO)C1=O (stereo not given),> 100

# Tested on: HS 578T breast
# Assay: DTP human tumour cell line panel, 48 h
row,Structure (SMILES),TGI [µM]
1,O=[N+]([O-])c1ccc(Cl)c(C=NC23CC4CC(CC(C4)C2)C3)c1,> 10
2,O=S(=O)(c1ccccc1)n1c2cc3cccnc3nc2c2cccnc21,> 100
3,Cc1cccc(-c2nc3ccc([N+](=O)[O-])cc3c(=O)o2)c1,97.9
4,Oc1ccc2ccccc2c1/C=C/c1ccc2c(Br)cc(Br)c(O)c2n1,49.4
5,CC1(CCCO)CCCCCC(C)(CCCO)C1=O (stereo not given),> 100

# Tested on: U251 CNS
# Assay: DTP human tumour cell line panel, 48 h
row,Structure (SMILES),TGI [µM]
1,O=[N+]([O-])c1ccc(Cl)c(C=NC23CC4CC(CC(C4)C2)C3)c1,> 10
2,O=S(=O)(c1ccccc1)n1c2cc3cccnc3nc2c2cccnc21,> 100
3,Cc1cccc(-c2nc3ccc([N+](=O)[O-])cc3c(=O)o2)c1,> 100
4,Oc1ccc2ccccc2c1/C=C/c1ccc2c(Br)cc(Br)c(O)c2n1,21.6
5,CC1(CCCO)CCCCCC(C)(CCCO)C1=O (stereo not given),> 100

# Tested on: COLO 205 colon
# Assay: DTP human tumour cell line panel, 48 h
row,Structure (SMILES),TGI [µM]
1,O=[N+]([O-])c1ccc(Cl)c(C=NC23CC4CC(CC(C4)C2)C3)c1,> 10
2,O=S(=O)(c1ccccc1)n1c2cc3cccnc3nc2c2cccnc21,> 100
3,Cc1cccc(-c2nc3ccc([N+](=O)[O-])cc3c(=O)o2)c1,> 100
4,Oc1ccc2ccccc2c1/C=C/c1ccc2c(Br)cc(Br)c(O)c2n1,21.9
5,CC1(CCCO)CCCCCC(C)(CCCO)C1=O (stereo not given),> 100

# Tested on: SK-OV-3 ovarian
# Assay: DTP human tumour cell line panel, 48 h
row,Structure (SMILES),TGI [µM]
1,O=[N+]([O-])c1ccc(Cl)c(C=NC23CC4CC(CC(C4)C2)C3)c1,> 10
2,O=S(=O)(c1ccccc1)n1c2cc3cccnc3nc2c2cccnc21,> 100
3,Cc1cccc(-c2nc3ccc([N+](=O)[O-])cc3c(=O)o2)c1,> 100
4,Oc1ccc2ccccc2c1/C=C/c1ccc2c(Br)cc(Br)c(O)c2n1,28.9
5,CC1(CCCO)CCCCCC(C)(CCCO)C1=O (stereo not given),> 100

# Tested on: NCI-H23 lung
# Assay: DTP human tumour cell line panel, 48 h
row,Structure (SMILES),TGI [µM]
1,O=[N+]([O-])c1ccc(Cl)c(C=NC23CC4CC(CC(C4)C2)C3)c1,> 10
2,O=S(=O)(c1ccccc1)n1c2cc3cccnc3nc2c2cccnc21,> 100
3,Cc1cccc(-c2nc3ccc([N+](=O)[O-])cc3c(=O)o2)c1,> 100
4,Oc1ccc2ccccc2c1/C=C/c1ccc2c(Br)cc(Br)c(O)c2n1,24.7
5,CC1(CCCO)CCCCCC(C)(CCCO)C1=O (stereo not given),> 100

# Tested on: CAKI-1 renal
# Assay: DTP human tumour cell line panel, 48 h
row,Structure (SMILES),TGI [µM]
1,O=[N+]([O-])c1ccc(Cl)c(C=NC23CC4CC(CC(C4)C2)C3)c1,> 10
2,O=S(=O)(c1ccccc1)n1c2cc3cccnc3nc2c2cccnc21,> 100
3,Cc1cccc(-c2nc3ccc([N+](=O)[O-])cc3c(=O)o2)c1,> 100
4,Oc1ccc2ccccc2c1/C=C/c1ccc2c(Br)cc(Br)c(O)c2n1,26.7
5,CC1(CCCO)CCCCCC(C)(CCCO)C1=O (stereo not given),> 100

# Tested on: SR leukemia
# Assay: DTP human tumour cell line panel, 48 h
row,Structure (SMILES),TGI [µM]
1,O=[N+]([O-])c1ccc(Cl)c(C=NC23CC4CC(CC(C4)C2)C3)c1,> 10
2,O=S(=O)(c1ccccc1)n1c2cc3cccnc3nc2c2cccnc21,30.4
3,Cc1cccc(-c2nc3ccc([N+](=O)[O-])cc3c(=O)o2)c1,> 100
4,Oc1ccc2ccccc2c1/C=C/c1ccc2c(Br)cc(Br)c(O)c2n1,> 40.4
5,CC1(CCCO)CCCCCC(C)(CCCO)C1=O (stereo not given),> 100

# Tested on: MDA-MB-231 breast
# Assay: DTP human tumour cell line panel, 48 h
row,Structure (SMILES),TGI [µM]
1,O=[N+]([O-])c1ccc(Cl)c(C=NC23CC4CC(CC(C4)C2)C3)c1,> 10
2,O=S(=O)(c1ccccc1)n1c2cc3cccnc3nc2c2cccnc21,> 100
3,Cc1cccc(-c2nc3ccc([N+](=O)[O-])cc3c(=O)o2)c1,> 100
4,Oc1ccc2ccccc2c1/C=C/c1ccc2c(Br)cc(Br)c(O)c2n1,23.4
5,CC1(CCCO)CCCCCC(C)(CCCO)C1=O (stereo not given),> 100

# Tested on: SF-295 CNS
# Assay: DTP human tumour cell line panel, 48 h
row,Structure (SMILES),TGI [µM]
1,O=[N+]([O-])c1ccc(Cl)c(C=NC23CC4CC(CC(C4)C2)C3)c1,> 10
2,O=S(=O)(c1ccccc1)n1c2cc3cccnc3nc2c2cccnc21,> 100
3,Cc1cccc(-c2nc3ccc([N+](=O)[O-])cc3c(=O)o2)c1,> 100
4,Oc1ccc2ccccc2c1/C=C/c1ccc2c(Br)cc(Br)c(O)c2n1,18.5
5,CC1(CCCO)CCCCCC(C)(CCCO)C1=O (stereo not given),> 100

# Tested on: HT29 colon
# Assay: DTP human tumour cell line panel, 48 h
row,Structure (SMILES),TGI [µM]
1,O=[N+]([O-])c1ccc(Cl)c(C=NC23CC4CC(CC(C4)C2)C3)c1,> 10
2,O=S(=O)(c1ccccc1)n1c2cc3cccnc3nc2c2cccnc21,> 100
3,Cc1cccc(-c2nc3ccc([N+](=O)[O-])cc3c(=O)o2)c1,> 100
4,Oc1ccc2ccccc2c1/C=C/c1ccc2c(Br)cc(Br)c(O)c2n1,41.4
5,CC1(CCCO)CCCCCC(C)(CCCO)C1=O (stereo not given),> 100

# Tested on: IGROV1 ovarian
# Assay: DTP human tumour cell line panel, 48 h
row,Structure (SMILES),TGI [µM]
1,O=[N+]([O-])c1ccc(Cl)c(C=NC23CC4CC(CC(C4)C2)C3)c1,> 10
2,O=S(=O)(c1ccccc1)n1c2cc3cccnc3nc2c2cccnc21,> 100
3,Cc1cccc(-c2nc3ccc([N+](=O)[O-])cc3c(=O)o2)c1,> 100
4,Oc1ccc2ccccc2c1/C=C/c1ccc2c(Br)cc(Br)c(O)c2n1,32.5
5,CC1(CCCO)CCCCCC(C)(CCCO)C1=O (stereo not given),> 100

# Tested on: A549 NSCLC
# Assay: DTP human tumour cell line panel, 48 h
row,Structure (SMILES),TGI [µM]
1,O=[N+]([O-])c1ccc(Cl)c(C=NC23CC4CC(CC(C4)C2)C3)c1,> 10
2,O=S(=O)(c1ccccc1)n1c2cc3cccnc3nc2c2cccnc21,> 100
3,Cc1cccc(-c2nc3ccc([N+](=O)[O-])cc3c(=O)o2)c1,> 100
4,Oc1ccc2ccccc2c1/C=C/c1ccc2c(Br)cc(Br)c(O)c2n1,20.5
5,CC1(CCCO)CCCCCC(C)(CCCO)C1=O (stereo not given),> 100

# Tested on: HCT-116 colon
# Assay: DTP human tumour cell line panel, 48 h
row,Structure (SMILES),TGI [µM]
1,O=[N+]([O-])c1ccc(Cl)c(C=NC23CC4CC(CC(C4)C2)C3)c1,> 10
2,O=S(=O)(c1ccccc1)n1c2cc3cccnc3nc2c2cccnc21,> 100
3,Cc1cccc(-c2nc3ccc([N+](=O)[O-])cc3c(=O)o2)c1,> 100
4,Oc1ccc2ccccc2c1/C=C/c1ccc2c(Br)cc(Br)c(O)c2n1,11.4
5,CC1(CCCO)CCCCCC(C)(CCCO)C1=O (stereo not given),> 100

# Tested on: HL-60(TB) leukemia
# Assay: DTP human tumour cell line panel, 48 h
row,Structure (SMILES),TGI [µM]
1,O=[N+]([O-])c1ccc(Cl)c(C=NC23CC4CC(CC(C4)C2)C3)c1,4.46
2,O=S(=O)(c1ccccc1)n1c2cc3cccnc3nc2c2cccnc21,48.1
3,Cc1cccc(-c2nc3ccc([N+](=O)[O-])cc3c(=O)o2)c1,> 100
4,Oc1ccc2ccccc2c1/C=C/c1ccc2c(Br)cc(Br)c(O)c2n1,12.3
5,CC1(CCCO)CCCCCC(C)(CCCO)C1=O (stereo not given),> 100

# Tested on: HOP-62 NSCLC
# Assay: DTP human tumour cell line panel, 48 h
row,Structure (SMILES),TGI [µM]
1,O=[N+]([O-])c1ccc(Cl)c(C=NC23CC4CC(CC(C4)C2)C3)c1,> 10
2,O=S(=O)(c1ccccc1)n1c2cc3cccnc3nc2c2cccnc21,> 100
3,Cc1cccc(-c2nc3ccc([N+](=O)[O-])cc3c(=O)o2)c1,> 100
4,Oc1ccc2ccccc2c1/C=C/c1ccc2c(Br)cc(Br)c(O)c2n1,34.5
5,CC1(CCCO)CCCCCC(C)(CCCO)C1=O (stereo not given),> 100

# Tested on: HCC-2998 colon
# Assay: DTP human tumour cell line panel, 48 h
row,Structure (SMILES),TGI [µM]
1,O=[N+]([O-])c1ccc(Cl)c(C=NC23CC4CC(CC(C4)C2)C3)c1,> 10
2,O=S(=O)(c1ccccc1)n1c2cc3cccnc3nc2c2cccnc21,> 100
3,Cc1cccc(-c2nc3ccc([N+](=O)[O-])cc3c(=O)o2)c1,> 100
4,Oc1ccc2ccccc2c1/C=C/c1ccc2c(Br)cc(Br)c(O)c2n1,23.4
5,CC1(CCCO)CCCCCC(C)(CCCO)C1=O (stereo not given),> 100

# Tested on: UO-31 renal
# Assay: DTP human tumour cell line panel, 48 h
row,Structure (SMILES),TGI [µM]
1,O=[N+]([O-])c1ccc(Cl)c(C=NC23CC4CC(CC(C4)C2)C3)c1,> 10
2,O=S(=O)(c1ccccc1)n1c2cc3cccnc3nc2c2cccnc21,> 100
3,Cc1cccc(-c2nc3ccc([N+](=O)[O-])cc3c(=O)o2)c1,> 100
4,Oc1ccc2ccccc2c1/C=C/c1ccc2c(Br)cc(Br)c(O)c2n1,17.1
5,CC1(CCCO)CCCCCC(C)(CCCO)C1=O (stereo not given),> 100

# Tested on: SK-MEL-2 melanoma
# Assay: DTP human tumour cell line panel, 48 h
row,Structure (SMILES),TGI [µM]
1,O=[N+]([O-])c1ccc(Cl)c(C=NC23CC4CC(CC(C4)C2)C3)c1,> 10
2,O=S(=O)(c1ccccc1)n1c2cc3cccnc3nc2c2cccnc21,> 100
3,Cc1cccc(-c2nc3ccc([N+](=O)[O-])cc3c(=O)o2)c1,> 100
4,Oc1ccc2ccccc2c1/C=C/c1ccc2c(Br)cc(Br)c(O)c2n1,29.7
5,CC1(CCCO)CCCCCC(C)(CCCO)C1=O (stereo not given),> 100

# — PubChem BioAssay (NCI)
